In PubChem BioAssay (NCI):
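Compound exposure: 48 hours, 5 concentrations, 96-well plates. At the GI50, growth is halved. The concentration for full growth arrest is given as TGI.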

What was measured:
Test in all cases: growth of human tumour cells (NCI), 48 h
A549 NSCLC = tested on: A549 NSCLC
OVCAR-5 ovarian = tested on: OVCAR-5 ovarian
SF-295 CNS = tested on: SF-295 CNS
SN12C renal = tested on: SN12C renal
SK-OV-3 ovarian = tested on: SK-OV-3 ovarian
IGROV1 ovarian = tested on: IGROV1 ovarian
KM12 colon = tested on: KM12 colon
CCRF-CEM leukemia = tested on: CCRF-CEM leukemia
MOLT-4 leukemia = tested on: MOLT-4 leukemia
HCC-2998 colon = tested on: HCC-2998 colon

## CCOC(=O)C#Cc1c(CC(=O)OCC)nnn1[C@H]1O[C@@H](CO)[C@@H]2OC(C)(C)O[C@@H]21
A549 NSCLC
  GI50: 23.7 µM
  TGI: 41.9 µM
OVCAR-5 ovarian
  GI50: 12.1 µM
  TGI: 27.3 µM
SF-295 CNS
  GI50: 43.6 µM
  TGI: > 100 µM
SN12C renal
  GI50: 3.06 µM
  TGI: 9.01 µM
SK-OV-3 ovarian
  GI50: 37.3 µM
  TGI: > 100 µM
IGROV1 ovarian
  GI50: 16.1 µM
  TGI: 36.6 µM
KM12 colon
  GI50: 16.4 µM
  TGI: 32.7 µM
CCRF-CEM leukemia
  GI50: 2.04 µM
  TGI: 4.97 µM
MOLT-4 leukemia
  GI50: 2.79 µM
  TGI: 7.73 µM
HCC-2998 colon
  GI50: 17.7 µM
  TGI: 31.8 µM

## C/C=C/C=C\C1OC(O)([C@H](CC)C(=O)NC/C=C/C=C(\C)[C@H](OC)C(C)C2OC(\C=C/C=C/C=C(\C)C(=O)c3c(O)ccn(C)c3=O)[C@H](O)[C@@H]2O)C(O)C(O)C1(C)C (stereo not given in full)
A549 NSCLC
  TGI: > 100 µM
OVCAR-5 ovarian
  TGI: > 100 µM
SF-295 CNS
  TGI: > 100 µM
SN12C renal
  TGI: > 100 µM
SK-OV-3 ovarian
  TGI: > 100 µM
IGROV1 ovarian
  TGI: > 100 µM
KM12 colon
  TGI: > 100 µM
CCRF-CEM leukemia
  TGI: > 100 µM
MOLT-4 leukemia
  TGI: > 100 µM
HCC-2998 colon
  TGI: > 100 µM

## COC(=O)C(CC(=O)Nc1ccc(Cl)c(Cl)c1)C(=O)C(=O)NC1C2CC3CC(C2)CC1C3 (stereo not given)
A549 NSCLC
  TGI: > 100 µM
OVCAR-5 ovarian
  TGI: > 100 µM
SF-295 CNS
  TGI: > 100 µM
SN12C renal
  TGI: > 100 µM
SK-OV-3 ovarian
  TGI: > 100 µM
IGROV1 ovarian
  TGI: > 100 µM
KM12 colon
  TGI: > 100 µM
CCRF-CEM leukemia
  TGI: > 100 µM
MOLT-4 leukemia
  TGI: > 100 µM
HCC-2998 colon
  TGI: > 100 µM

## N#CC(C#N)=C1SCC(=O)CS1
A549 NSCLC
  TGI: > 100 µM
OVCAR-5 ovarian
  TGI: > 100 µM
SF-295 CNS
  TGI: > 100 µM
SN12C renal
  TGI: > 100 µM
SK-OV-3 ovarian
  TGI: > 100 µM
IGROV1 ovarian
  TGI: > 100 µM
KM12 colon
  TGI: > 100 µM
CCRF-CEM leukemia
  TGI: > 100 µM
MOLT-4 leukemia
  TGI: > 100 µM
HCC-2998 colon
  TGI: > 100 µM

## O=C(N/C(=C\c1ccc(Oc2ccc(Cl)c(Cl)c2)cc1)c1nc2ccccc2[nH]1)c1ccccc1
A549 NSCLC
  TGI: 54.4 µM
OVCAR-5 ovarian
  TGI: 67.9 µM
SF-295 CNS
  TGI: 29 µM
SN12C renal
  TGI: 35.5 µM
SK-OV-3 ovarian
  TGI: 79.2 µM
KM12 colon
  TGI: 30.4 µM
CCRF-CEM leukemia
  TGI: 88.5 µM
MOLT-4 leukemia
  TGI: 93.4 µM
HCC-2998 colon
  TGI: 31.7 µM

## O=C1C[C@H]2CC3(CC[C@H]2CN1)OCCO3
A549 NSCLC
  TGI: > 100 µM
SF-295 CNS
  TGI: > 100 µM
SN12C renal
  TGI: > 100 µM
SK-OV-3 ovarian
  TGI: > 100 µM
IGROV1 ovarian
  TGI: > 100 µM
KM12 colon
  TGI: > 100 µM
CCRF-CEM leukemia
  TGI: > 100 µM
MOLT-4 leukemia
  TGI: > 100 µM
HCC-2998 colon
  TGI: > 100 µM

## COc1cc([C@@H]2OC(=O)C3C2C(=O)O[C@H]3c2cc(OC)c(OC)c(OC)c2)cc(OC)c1OC (stereo not given in full)
A549 NSCLC
  TGI: > 100 µM
SF-295 CNS
  TGI: > 100 µM
SN12C renal
  TGI: > 100 µM
SK-OV-3 ovarian
  TGI: > 100 µM
IGROV1 ovarian
  TGI: > 100 µM
KM12 colon
  TGI: > 100 µM
CCRF-CEM leukemia
  TGI: > 100 µM
MOLT-4 leukemia
  TGI: > 100 µM
HCC-2998 colon
  TGI: > 100 µM

## Cc1cccc2c1C(=O)OC2(C)c1cccc2ccccc12 (stereo not given)
A549 NSCLC
  TGI: > 100 µM
OVCAR-5 ovarian
  TGI: > 100 µM
SF-295 CNS
  TGI: > 100 µM
SN12C renal
  TGI: 56 µM
KM12 colon
  TGI: > 100 µM
CCRF-CEM leukemia
  TGI: 80.4 µM
MOLT-4 leukemia
  TGI: 88.8 µM
HCC-2998 colon
  TGI: 50.9 µM

## O=C1/C(=C/c2ccc(Cl)cc2)COc2ccc(O)c(O)c21
A549 NSCLC
  GI50: 1.79 µM
  TGI: 4.77 µM
OVCAR-5 ovarian
  GI50: 1.6 µM
  TGI: 3.21 µM
SF-295 CNS
  GI50: 3.37 µM
  TGI: 13.2 µM
SN12C renal
  GI50: 0.724 µM
  TGI: 2.57 µM
SK-OV-3 ovarian
  GI50: 2.49 µM
  TGI: > 100 µM
IGROV1 ovarian
  GI50: 0.438 µM
  TGI: 2.16 µM
KM12 colon
  GI50: 1.36 µM
  TGI: 3.31 µM
MOLT-4 leukemia
  GI50: 0.618 µM
  TGI: > 100 µM
HCC-2998 colon
  GI50: 1.51 µM
  TGI: 2.96 µM

## O=C(NCP(=O)(O)O)c1cccnc1
A549 NSCLC
  TGI: > 100 µM
OVCAR-5 ovarian
  TGI: > 100 µM
SF-295 CNS
  TGI: > 100 µM
SN12C renal
  TGI: > 100 µM
SK-OV-3 ovarian
  TGI: > 100 µM
IGROV1 ovarian
  TGI: > 100 µM
KM12 colon
  TGI: > 100 µM
CCRF-CEM leukemia
  TGI: > 100 µM
MOLT-4 leukemia
  TGI: > 100 µM

## CC(C)CCc1c(Cl)nc(Cl)nc1Cl
A549 NSCLC
  TGI: 54.9 µM
OVCAR-5 ovarian
  TGI: 55 µM
SF-295 CNS
  TGI: 34.4 µM
SN12C renal
  TGI: 57.9 µM
SK-OV-3 ovarian
  TGI: 37.6 µM
IGROV1 ovarian
  TGI: 37.5 µM
CCRF-CEM leukemia
  TGI: > 100 µM
MOLT-4 leukemia
  TGI: > 100 µM
HCC-2998 colon
  TGI: 64 µM

## COc1cc(C(=O)CC2(O)C(=O)Nc3c(Cl)cc(Cl)cc32)ccc1O (stereo not given)
A549 NSCLC
  TGI: > 100 µM
OVCAR-5 ovarian
  TGI: > 100 µM
SF-295 CNS
  TGI: > 100 µM
SN12C renal
  TGI: > 100 µM
SK-OV-3 ovarian
  TGI: > 100 µM
KM12 colon
  TGI: > 100 µM
CCRF-CEM leukemia
  TGI: > 100 µM
MOLT-4 leukemia
  TGI: > 100 µM
HCC-2998 colon
  TGI: 88.7 µM

## CC1=C(C(=O)Nc2ccc(F)c(Cl)c2)C(c2cccc(Oc3ccccc3)c2)NC(=O)N1 (stereo not given)
A549 NSCLC
  GI50: 14.1 µM
  TGI: 30.2 µM
OVCAR-5 ovarian
  GI50: 14.9 µM
  TGI: 28.2 µM
SF-295 CNS
  GI50: 22.1 µM
  TGI: 57 µM
SN12C renal
  GI50: 16.1 µM
  TGI: 32.8 µM
SK-OV-3 ovarian
  GI50: 18 µM
  TGI: 32.7 µM
IGROV1 ovarian
  GI50: 10.7 µM
  TGI: 24.2 µM
KM12 colon
  GI50: 14.9 µM
  TGI: 34.3 µM
CCRF-CEM leukemia
  GI50: 10.4 µM
  TGI: 26.4 µM
HCC-2998 colon
  GI50: 14.6 µM
  TGI: 27.8 µM

## Cc1ccc(/C=C2\CCCC\C2=N\O)cc1
A549 NSCLC
  TGI: > 100 µM
SF-295 CNS
  TGI: > 100 µM
SN12C renal
  TGI: > 100 µM
SK-OV-3 ovarian
  TGI: > 100 µM
IGROV1 ovarian
  TGI: > 100 µM
CCRF-CEM leukemia
  TGI: > 100 µM
HCC-2998 colon
  TGI: > 100 µM
